In patent US10590128B2, “6,7,8,9-tetrahydro-5H-pyrido[2,3-d]azepine dopamine D3 ligands” (Pfizer Inc., priority 2016, dated 2020):

Columns and labels:
[1] = target: human dopamine D3 receptor (hD3R) (Homo sapiens, UniProt P35462); assay: Human D3 receptor binding assay ([^3H]-7-OH-DPAT); conditions: CHO cells expressing hD3R, geometric mean of 2-5 determinations unless marked b (single determination), read-out: hD3 in CHO cells Ki
[2] = target: human dopamine D2 receptor (hD2R) (Homo sapiens, UniProt P14416); assay: Human D2 receptor binding assay ([^3H]-Spiperone); conditions: CHO cells expressing hD2R, geometric mean of 2-5 determinations unless marked b (single determination)
human dopamine D2 receptor (hD2R), sequence (P14416 whole entry): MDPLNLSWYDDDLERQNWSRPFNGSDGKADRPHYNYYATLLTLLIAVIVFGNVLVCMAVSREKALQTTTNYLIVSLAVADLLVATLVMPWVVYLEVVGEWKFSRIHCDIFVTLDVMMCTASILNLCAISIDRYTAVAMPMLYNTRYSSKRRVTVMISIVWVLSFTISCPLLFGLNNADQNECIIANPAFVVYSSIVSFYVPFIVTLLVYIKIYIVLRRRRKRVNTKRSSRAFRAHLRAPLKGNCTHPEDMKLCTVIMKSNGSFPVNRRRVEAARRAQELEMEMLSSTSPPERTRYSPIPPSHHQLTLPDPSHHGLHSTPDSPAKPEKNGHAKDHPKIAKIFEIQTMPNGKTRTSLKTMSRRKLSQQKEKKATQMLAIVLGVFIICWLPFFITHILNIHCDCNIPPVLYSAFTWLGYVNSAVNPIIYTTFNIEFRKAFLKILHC

human dopamine D3 receptor (hD3R), sequence (P35462 whole entry): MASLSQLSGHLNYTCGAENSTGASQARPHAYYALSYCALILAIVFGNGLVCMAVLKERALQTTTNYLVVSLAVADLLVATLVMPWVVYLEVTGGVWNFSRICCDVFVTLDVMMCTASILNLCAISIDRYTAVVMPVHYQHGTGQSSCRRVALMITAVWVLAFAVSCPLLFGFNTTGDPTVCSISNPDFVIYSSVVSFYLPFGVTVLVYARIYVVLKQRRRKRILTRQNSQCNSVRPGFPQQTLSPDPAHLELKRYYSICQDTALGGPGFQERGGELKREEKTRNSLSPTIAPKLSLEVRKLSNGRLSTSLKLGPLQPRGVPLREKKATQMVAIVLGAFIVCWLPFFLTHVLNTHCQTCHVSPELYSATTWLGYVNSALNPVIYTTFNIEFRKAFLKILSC

Ki [1] [nM] | Ki [2] [nM] | SMILES
2.42 | 89.9 | CCN1CCc2cc(NS(=O)(=O)c3ccc([C@H]4C[C@@H](OCCF)C4)cc3)c(OC)nc2CC1 [Example 119, N-(7-ethyl-2-methoxy-6,7,8,9-tetrahydro-5H-pyrido[2,3-d]azepin-3-yl)-4-[cis-3-(2-fluoroethoxy)cyclobutyl]benzenesulfonamide]
1.28 | 54 | CCO[C@H]1C[C@@H](c2ccc(S(=O)(=O)Nc3cc4c(nc3OC)CCN(CC)CC4)cc2)C1 [Example 120, 4-(cis-3-ethoxycyclobutyl)-N-(7-ethyl-2-methoxy-6,7,8,9-tetrahydro-5H-pyrido[2,3-d]azepin-3-yl)benzenesulfonamide]
2.53 | 39.8 | CCOC1CC(c2ccc(S(=O)(=O)Nc3cc4c(nc3OC)CCN(CC)CC4)cc2)C1 (stereo not drawn) [Example 121, 4-(trans-3-ethoxycycyclobutyl)-N-(7-ethyl-2-methoxy-6,7,8,9-tetrahydro-5H-pyrido[2,3-d]azepin-3-yl)benzenesulfonamide]
4.58 | 128 | COc1nc2c(cc1NS(=O)(=O)c1ccc(OC3CCCC3)nc1)CCN(CCCF)CC2 [Example 122, 6-(cyclopentyloxy)-N-[7-(3-fluoropropyl)-2-methoxy-6,7,8,9-tetrahydro-5H-pyrido[2,3-d]azepin-3-yl]pyridine-3-sulfonamide]
12.9 | 164 | COc1nc2c(cc1NS(=O)(=O)c1cnc(C3CCCC3)nc1)CCN(C)CC2 [Example 123, 2-cyclopentyl-N-(2-methoxy-7-methyl-6,7,8,9-tetrahydro-5H-pyrido[2,3-d]azepin-3-yl)pyrimidine-5-sulfonamide]
0.79 | 3.89 | COc1nc2c(cc1NS(=O)(=O)c1cnc(OC3CCCC3)c(C)c1)CCN(C)CC2 [Example 124, 6-(cyclopentyloxy)-N-(2-methoxy-7-methyl-6,7,8,9-tetrahydro-5H-pyrido[2,3-d]azepin-3-yl)-5-methylpyridine-3-sulfonamide]
1.46 | 4.05 | CCN1CCc2cc(NS(=O)(=O)c3cnc(OC4CCCC4)c(C)c3)c(OC)nc2CC1 [Example 125, 6-(cyclopentyloxy)-N-(7-ethyl-2-methoxy-6,7,8,9-tetrahydro-5H-pyrido[2,3-d]azepin-3-yl)-5-methylpyridine-3-sulfonamide]
1.85 | 10.9 | COc1nc2c(cc1NS(=O)(=O)c1cnc(OC3CCC3)c(C)c1)CCN(C)CC2 [Example 126, 6-(cyclobutyloxy)-N-(2-methoxy-7-methyl-6,7,8,9-tetrahydro-5H-pyrido[2,3-d]azepin-3-yl)-5-methylpyridine-3-sulfonamide]
32.2 | 457 | COc1nc2c(cc1NS(=O)(=O)c1cnc(C3CCCCC3)nc1)CCN(C)CC2 [Example 127, 2-cyclohexyl-N-(2-methoxy-7-methyl-6,7,8,9-tetrahydro-5H-pyrido[2,3-d]azepin-3-yl)pyrimidine-5-sulfonamide]
1.24 | 4.07 | COc1nc2c(cc1NS(=O)(=O)c1ccc(OC3CCCC3)nc1C)CCN(C)CC2 [Example 128, 6-(cyclopentyloxy)-N-(2-methoxy-7-methyl-6,7,8,9-tetrahydro-5H-pyrido[2,3-d]azepin-3-yl)-2-methylpyridine-3-sulfonamide]
16.7 | 786 | COc1nc2c(cc1NS(=O)(=O)c1ccc([C@H]3CCCCO3)nc1)CCN(C)CC2 [Example 129, N-(2-methoxy-7-methyl-6,7,8,9-tetrahydro-5H-pyrido[2,3-d]azepin-3-yl)-6-[(2R)-tetrahydro-2H-pyran-2-yl]pyridine-3-sulfonamide]
1.69 | 25.2 | COc1nc2c(cc1NS(=O)(=O)c1cnc(OC3CCCC3)c(F)c1)CCN(C)CC2 [Example 130, 6-(cyclopentyloxy)-5-fluoro-N-(2-methoxy-7-methyl-6,7,8,9-tetrahydro-5H-pyrido[2,3-d]azepin-3-yl)pyridine-3-sulfonamide]
2.3 | 36.1 | COc1nc2c(cc1NS(=O)(=O)c1ccc(CC3CCCC3)nc1)CCN(C)CC2 [Example 131, 6-(cyclopentylmethyl)-N-(2-methoxy-7-methyl-6,7,8,9-tetrahydro-5H-pyrido[2,3-d]azepin-3-yl)pyridine-3-sulfonamide]
2.23 | 367 | CCO[C@H]1C[C@@](F)(c2ccc(S(=O)(=O)Nc3cc4c(nc3OC)CCN(C)CC4)cc2)C1 [Example 132, 4-(trans-3-ethoxy-1-fluorocyclobutyl)-N-(2-methoxy-7-methyl-6,7,8,9-tetrahydro-5H-pyrido[2,3-d]azepin-3-yl)benzenesulfonamide]
2.47 | 428 | COc1nc2c(cc1NS(=O)(=O)c1ccc([C@]3(F)C[C@H](OCCF)C3)cc1)CCN(C)CC2 [Example 133, 4-[trans-1-fluoro-3-(2-fluoroethoxy)cyclobutyl]-N-(2-methoxy-7-methyl-6,7,8,9-tetrahydro-5H-pyrido[2,3-d]azepin-3-yl)benzenesulfonamide]
14.8 | 1810 | CCO[C@H]1C[C@H](c2ccc(S(=O)(=O)Nc3cc4c(nc3OC)CCN(C)CC4)cn2)C1 [Example 134, 6-(trans-3-ethoxycyclobutyl)-N-(2-methoxy-7-methyl-6,7,8,9-tetrahydro-5H-pyrido[2,3-d]azepin-3-yl)pyridine-3-sulfonamide]
23.6 | > 3140 | CCO[C@H]1C[C@@H](c2ccc(S(=O)(=O)Nc3cc4c(nc3OC)CCN(C)CC4)cn2)C1 [Example 135, 6-(cis-3-ethoxycyclobutyl)-N-(2-methoxy-7-methyl-6,7,8,9-tetrahydro-5H-pyrido[2,3-d]azepin-3-yl)pyridine-3-sulfonamide]
7.46 | 1220 | COc1nc2c(cc1NS(=O)(=O)c1ccc([C@]3(F)C[C@H](C)C3)nc1)CCN(C)CC2 [Example 136, 6-(trans-1-fluoro-3-methylcyclobutyl)-N-(2-methoxy-7-methyl-6,7,8,9-tetrahydro-5H-pyrido[2,3-d]azepin-3-yl)pyridine-3-sulfonamide]
152 | > 4190 | CCOc1ccc(S(=O)(=O)Nc2cc3c(nc2C)CCN(CC)CC3)cc1 [Example 137, 4-Ethoxy-N-(7-ethyl-2-methyl-6,7,8,9-tetrahydro-5H-pyrido[2,3-d]azepin-3-yl)benzenesulfonamide]
288 | > 4190 | CCN1CCc2cc(NS(=O)(=O)c3ccc(Cl)cc3)c(C)nc2CC1 [Example 138, 4-chloro-N-(7-ethyl-2-methyl-6,7,8,9-tetrahydro-5H-pyrido[2,3-d]azepin-3-yl)benzenesulfonamide]
713 | > 4280 | Cc1ccc(S(=O)(=O)Nc2cc3c(nc2C(F)(F)F)CCN(C)CC3)cc1 [Example 139, 4-methyl-N-[7-methyl-2-(trifluoromethyl)-6,7,8,9-tetrahydro-5H-pyrido[2,3-d]azepin-3-yl]benzenesulfonamide]
27.5 | 3300 | CCc1nc2c(cc1NS(=O)(=O)c1ccc([C@H]3CCCCO3)cc1)CCN(C)CC2 [Example 140, N-(2-ethyl-7-methyl-6,7,8,9-tetrahydro-5H-pyrido[2,3-d]azepin-3-yl)-4-[(2R)-tetrahydro-2H-pyran-2-yl]benzenesulfonamide]
